# Measured values: patent publication US10174047B2, “Thienodiazepine derivatives or pharmaceutically acceptable salts thereof, and pharmaceutical composition including the same as an active ingredient” (Industry-University Cooperation Foundation Hanyang …, priority 2015, dated 2019)
# Like-named read-outs stand apart in the source and are kept apart here.
# Key:
# PDGFRb = PDGFRb (Homo sapiens, UniProt P09619); experiment: Kinase panel screening; assay type: biochemical
# Description: (§1) Using the compound of Example 43 (1-(4-((4-ethylpiperazine-1-yl)methyl)-3-(trifluoromethyl)phenyl)-3-(4-(2-oxo-2,3-dihydro-1H-thieno[3,4-b][1,4]diazepine-4-yl)phenyl)urea), kinase panel screening was conducted against 35 kinds of kinases at a concentration of 10 μM, and the results are shown in the following Tables 4 and 5 (percentages of enzymatic inhibitions exerted by compound 43 (10 μM) on 30 selected protein kinases).
# (§2) Further, the IC50 values (50% inhibition concentration) of the compound of Example 43 against various kinases were calculated using GraphPad Prism 4.0 software, and the results are shown in the following Table 6.
# GSK3b = GSK3b (Homo sapiens, UniProt P49841); experiment: Kinase panel screening; assay type: biochemical
# Description: as §1, §2
# IGF1R = IGF1R (Homo sapiens, UniProt P08069); experiment: Kinase panel screening; assay type: biochemical
# Description: as §1, §2
# EGFR = EGFR (Homo sapiens, UniProt P00533); experiment: Kinase panel screening; assay type: biochemical
# Description: as §1, §2
# FLT3 = FLT3 (Homo sapiens, UniProt P36888); experiment: Kinase panel screening; assay type: biochemical; details: FLT3, 10 μM
# Description: as §1, §2
# TIE2/TEK = TIE2/TEK (Homo sapiens, UniProt Q02763); experiment: Kinase panel screening; assay type: biochemical
# Sequence of TIE2/TEK (Q02763 23-1124): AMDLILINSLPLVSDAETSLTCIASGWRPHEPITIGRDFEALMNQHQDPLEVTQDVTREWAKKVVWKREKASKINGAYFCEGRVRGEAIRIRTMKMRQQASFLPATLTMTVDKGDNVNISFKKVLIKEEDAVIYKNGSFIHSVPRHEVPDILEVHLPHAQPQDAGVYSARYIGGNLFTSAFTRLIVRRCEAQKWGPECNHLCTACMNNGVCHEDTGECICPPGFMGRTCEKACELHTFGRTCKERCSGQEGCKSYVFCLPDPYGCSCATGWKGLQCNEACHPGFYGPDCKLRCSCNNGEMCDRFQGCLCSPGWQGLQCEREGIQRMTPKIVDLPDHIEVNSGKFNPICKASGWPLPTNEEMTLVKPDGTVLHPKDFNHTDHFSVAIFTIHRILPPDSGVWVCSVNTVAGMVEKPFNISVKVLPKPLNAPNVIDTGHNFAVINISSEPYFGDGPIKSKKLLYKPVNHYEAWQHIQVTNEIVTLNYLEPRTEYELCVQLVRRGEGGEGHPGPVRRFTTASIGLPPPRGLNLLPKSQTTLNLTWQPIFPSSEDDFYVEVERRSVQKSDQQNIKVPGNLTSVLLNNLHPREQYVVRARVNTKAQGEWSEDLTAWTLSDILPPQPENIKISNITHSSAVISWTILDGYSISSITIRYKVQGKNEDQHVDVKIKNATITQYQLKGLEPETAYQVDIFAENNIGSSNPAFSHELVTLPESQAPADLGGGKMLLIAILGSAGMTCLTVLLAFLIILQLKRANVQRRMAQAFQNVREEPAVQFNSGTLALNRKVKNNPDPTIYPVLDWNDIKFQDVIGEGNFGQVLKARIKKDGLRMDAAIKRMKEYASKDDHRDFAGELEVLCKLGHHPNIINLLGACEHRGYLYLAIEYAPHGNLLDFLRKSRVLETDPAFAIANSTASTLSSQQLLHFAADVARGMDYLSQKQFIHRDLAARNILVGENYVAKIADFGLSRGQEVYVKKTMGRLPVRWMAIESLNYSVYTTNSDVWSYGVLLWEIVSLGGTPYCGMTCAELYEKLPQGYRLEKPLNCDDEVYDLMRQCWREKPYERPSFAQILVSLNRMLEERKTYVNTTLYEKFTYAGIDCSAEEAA
# Description: as §1, §2
# SYK = SYK (Homo sapiens, UniProt P43405); experiment: Kinase panel screening; assay type: biochemical
# Description: as §1, §2
# RET = RET (Homo sapiens, UniProt P07949); experiment: Kinase panel screening; assay type: biochemical
# Description: as §1, §2
# c-Kit = c-Kit (Homo sapiens, UniProt P10721); experiment: Kinase panel screening; assay type: biochemical
# Description: as §1, §2
# c-Src = c-Src (Homo sapiens, UniProt P12931); experiment: Kinase panel screening; assay type: biochemical
# Description: as §1, §2
# P38a/MAPK14 = P38a/MAPK14 (Homo sapiens, UniProt Q16539); experiment: Kinase panel screening; assay type: biochemical; details: P38a/MAPK14, 10 μM
# Sequence of P38a/MAPK14 (Q16539 whole entry): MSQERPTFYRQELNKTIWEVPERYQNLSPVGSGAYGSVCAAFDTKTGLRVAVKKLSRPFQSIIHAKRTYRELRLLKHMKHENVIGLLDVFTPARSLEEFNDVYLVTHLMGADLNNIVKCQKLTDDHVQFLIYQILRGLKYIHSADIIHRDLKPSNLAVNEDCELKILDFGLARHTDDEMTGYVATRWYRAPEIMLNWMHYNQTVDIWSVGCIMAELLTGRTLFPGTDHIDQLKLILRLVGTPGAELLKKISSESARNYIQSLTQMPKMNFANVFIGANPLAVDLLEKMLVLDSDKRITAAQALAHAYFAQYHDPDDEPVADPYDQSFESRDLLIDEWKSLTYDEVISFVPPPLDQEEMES
# Description: as §1, §2
# Aurora A = Aurora A (Homo sapiens, UniProt O14965); experiment: Kinase panel screening; assay type: biochemical
# Description: as §1, §2
# ALK = ALK (Homo sapiens, UniProt Q9UM73); experiment: Kinase panel screening; assay type: biochemical
# Description: as §1, §2
# CDK1/cyclin B = CDK1/cyclin B (Homo sapiens, UniProt P06493); experiment: Kinase panel screening; assay type: biochemical
# Description: as §1, §2
# BRAF (V599E) = BRAF (V599E) (Homo sapiens, UniProt P15056, V600E); experiment: Kinase panel screening; assay type: biochemical
# Description: as §1, §2
# FLT4/VEGFR3 = FLT4/VEGFR3 (Homo sapiens, UniProt P35916); experiment: Kinase panel screening; assay type: biochemical; details: FLT4/VEGFR3, 10 μM
# Description: as §1, §2
# FMS = FMS (Homo sapiens, UniProt P07333); experiment: Kinase panel screening; assay type: biochemical
# Sequence of FMS (P07333 20-972): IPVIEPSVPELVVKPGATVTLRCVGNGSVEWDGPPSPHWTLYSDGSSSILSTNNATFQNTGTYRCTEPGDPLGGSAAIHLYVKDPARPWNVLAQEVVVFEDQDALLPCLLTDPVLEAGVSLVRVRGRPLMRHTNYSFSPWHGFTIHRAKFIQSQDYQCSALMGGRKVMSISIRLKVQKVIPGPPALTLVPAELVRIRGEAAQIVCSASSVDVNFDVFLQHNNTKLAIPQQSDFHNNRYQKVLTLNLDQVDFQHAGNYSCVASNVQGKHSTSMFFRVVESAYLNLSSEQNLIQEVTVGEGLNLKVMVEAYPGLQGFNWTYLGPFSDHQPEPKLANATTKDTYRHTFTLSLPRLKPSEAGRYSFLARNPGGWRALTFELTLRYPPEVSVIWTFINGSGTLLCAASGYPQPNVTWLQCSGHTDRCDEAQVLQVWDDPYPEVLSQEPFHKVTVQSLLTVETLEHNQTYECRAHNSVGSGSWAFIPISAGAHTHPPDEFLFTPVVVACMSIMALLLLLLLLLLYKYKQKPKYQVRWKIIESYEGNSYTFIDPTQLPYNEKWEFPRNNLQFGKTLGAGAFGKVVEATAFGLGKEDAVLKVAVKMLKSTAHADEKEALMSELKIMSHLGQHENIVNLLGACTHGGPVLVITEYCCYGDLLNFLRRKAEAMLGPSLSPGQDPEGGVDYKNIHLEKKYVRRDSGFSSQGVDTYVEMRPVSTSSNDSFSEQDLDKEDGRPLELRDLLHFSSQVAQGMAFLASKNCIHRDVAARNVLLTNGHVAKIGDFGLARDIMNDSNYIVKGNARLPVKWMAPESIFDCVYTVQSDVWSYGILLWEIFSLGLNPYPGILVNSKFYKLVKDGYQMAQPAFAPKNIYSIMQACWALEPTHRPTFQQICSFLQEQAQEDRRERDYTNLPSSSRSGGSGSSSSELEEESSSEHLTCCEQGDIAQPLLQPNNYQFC
# Description: as §1, §2
# c-MET = c-MET (Homo sapiens, UniProt P08581); experiment: Kinase panel screening; assay type: biochemical
# Description: as §1, §2
# FGFR3 = FGFR3 (Homo sapiens, UniProt P22607); experiment: Kinase panel screening; assay type: biochemical; details: FGFR3, 10 μM
# Description: as §1, §2
# ERK1 = ERK1 (Homo sapiens, UniProt P27361); experiment: Kinase panel screening; assay type: biochemical; details: ERK1, 10 μM
# Description: as §1, §2
# FGFR2 = FGFR2 (Homo sapiens, UniProt P21802); experiment: Kinase panel screening; assay type: biochemical; details: FGFR2, 10 μM
# Description: as §1, §2
# FLT1/VEGFR1 = FLT1/VEGFR1 (Homo sapiens, UniProt P17948); experiment: Kinase panel screening; assay type: biochemical; details: FLT1/VEGFR1, 10 μM
# Description: as §1, §2
# KDR/VEGFR2 = KDR/VEGFR2 (Homo sapiens, UniProt P35968); experiment: Kinase panel screening; assay type: biochemical; details: KDR/VEGFR2, 10 μM
# Description: as §1, §2
# CDK2/cyclin E = CDK2/cyclin E (Homo sapiens, UniProt P24941); experiment: Kinase panel screening; assay type: biochemical
# Description: as §1, §2
# LCK = LCK (Homo sapiens, UniProt P06239); experiment: Kinase panel screening; assay type: biochemical
# Description: as §1, §2
# ROS/ROS1 = ROS/ROS1 (Homo sapiens, UniProt P08922); experiment: Kinase panel screening; assay type: biochemical; details: ROS/ROS1, 10 μM
# Description: as §1, §2
# AKT1 = AKT1 (Homo sapiens, UniProt P31749); experiment: Kinase panel screening; assay type: biochemical; details: AKT1, 10 μM
# Description: as §1, §2
# RAF1 = RAF1 (Homo sapiens, UniProt P04049); experiment: Kinase panel screening; assay type: biochemical; details: RAF1, 10 μM
# Sequence of RAF1 (P04049 whole entry): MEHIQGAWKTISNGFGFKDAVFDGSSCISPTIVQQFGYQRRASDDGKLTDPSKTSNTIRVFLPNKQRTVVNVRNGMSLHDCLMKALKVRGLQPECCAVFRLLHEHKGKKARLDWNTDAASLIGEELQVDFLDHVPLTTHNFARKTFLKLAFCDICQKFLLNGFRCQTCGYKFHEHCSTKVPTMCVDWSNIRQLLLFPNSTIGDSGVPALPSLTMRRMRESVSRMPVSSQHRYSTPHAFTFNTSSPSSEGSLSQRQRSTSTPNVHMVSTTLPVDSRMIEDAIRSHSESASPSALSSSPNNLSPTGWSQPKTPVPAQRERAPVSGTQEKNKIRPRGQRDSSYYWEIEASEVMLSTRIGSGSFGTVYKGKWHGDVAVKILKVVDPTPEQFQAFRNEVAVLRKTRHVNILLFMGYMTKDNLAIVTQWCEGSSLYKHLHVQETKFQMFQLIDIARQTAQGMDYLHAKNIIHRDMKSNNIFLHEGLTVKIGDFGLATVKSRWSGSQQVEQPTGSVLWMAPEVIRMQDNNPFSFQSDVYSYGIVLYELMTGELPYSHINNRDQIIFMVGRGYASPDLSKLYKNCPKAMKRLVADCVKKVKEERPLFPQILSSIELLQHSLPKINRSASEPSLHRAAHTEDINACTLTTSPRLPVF
# Description: as §1, §2
# FGFR1 = FGFR1 (Homo sapiens, UniProt P11362); experiment: Kinase panel screening; assay type: biochemical; details: FGFR1, 10 μM
# Sequence of FGFR1 (P11362 22-822, species assumed): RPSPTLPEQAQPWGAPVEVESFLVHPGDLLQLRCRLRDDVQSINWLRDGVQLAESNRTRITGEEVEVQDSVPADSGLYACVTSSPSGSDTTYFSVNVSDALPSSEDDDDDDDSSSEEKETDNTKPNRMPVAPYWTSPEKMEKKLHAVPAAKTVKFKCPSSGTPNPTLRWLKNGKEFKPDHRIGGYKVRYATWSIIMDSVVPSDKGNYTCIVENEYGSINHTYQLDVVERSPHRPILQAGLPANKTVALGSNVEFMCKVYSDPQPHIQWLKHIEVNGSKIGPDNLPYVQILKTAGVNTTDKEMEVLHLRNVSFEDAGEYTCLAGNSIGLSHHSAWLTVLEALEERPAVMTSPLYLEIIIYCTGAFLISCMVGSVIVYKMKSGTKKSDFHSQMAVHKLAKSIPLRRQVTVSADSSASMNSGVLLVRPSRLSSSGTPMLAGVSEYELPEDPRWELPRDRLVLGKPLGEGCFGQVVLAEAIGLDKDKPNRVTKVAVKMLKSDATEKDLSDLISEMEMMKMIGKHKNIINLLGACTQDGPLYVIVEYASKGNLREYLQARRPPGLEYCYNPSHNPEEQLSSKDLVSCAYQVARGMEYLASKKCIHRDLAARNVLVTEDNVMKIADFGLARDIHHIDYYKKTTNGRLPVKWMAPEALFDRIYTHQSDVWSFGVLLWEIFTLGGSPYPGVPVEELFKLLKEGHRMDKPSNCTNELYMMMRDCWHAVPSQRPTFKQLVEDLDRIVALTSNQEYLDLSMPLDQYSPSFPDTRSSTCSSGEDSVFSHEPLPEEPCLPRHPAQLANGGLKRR
# Description: as §1, §2
# PDGFRa = PDGFRa (Homo sapiens, UniProt P16234); experiment: Kinase panel screening; assay type: biochemical
# Description: as §1, §2
# BRAF = BRAF (Homo sapiens, UniProt P15056); experiment: Kinase panel screening; assay type: biochemical
# Description: as §1, §2
# FAK/PTK2 = FAK/PTK2 (Homo sapiens, UniProt Q05397); experiment: Kinase panel screening; assay type: biochemical; details: FAK/PTK2, 10 μM
# Description: as §1, §2
# MEK1 = MEK1 (Homo sapiens, UniProt Q02750); experiment: Kinase panel screening; assay type: biochemical; details: MEK1, 10 μM
# Description: as §1, §2
# ITK = ITK (Homo sapiens, UniProt Q08881); experiment: Kinase panel screening; assay type: biochemical
# Description: as §1, §2
# LYN = LYN (Homo sapiens, UniProt P07948); experiment: Kinase panel screening; assay type: biochemical
# Description: as §1, §2
# [1] = tested on: A375P cell line (melanoma); experiment: Proliferation inhibition activity against A375P cell line (MTT assay); assay type: cell-based; details: A375P melanoma cells; for GI50: MTT assay
# Description: Measurement of Proliferation Inhibition Activity Against A375P Cell Line (Melanoma)
# An A375P cell line purchased from ATCC was cultured in a DMEM medium [containing 10% FBS, 1% penicillin/streptomycin] at 37° C. in the presence of 5% CO2. The cultured A375P cell line was taken using 0.05% trypsin-0.02% EDTA, and seeded into a 96-well plate at a density of 5×10^3 cells per well.
# Cell viability was measured using an MTT [3-(4,5-dimethylthiazol-2-yl)-2,5-diphenyltetrazolium bromide] assay (CellTiter 96 Assay, Promega) as follows. 15 μl of dye was placed per well, the cells were cultured for 2 hours, and then treated with 100 μl of a stop solution, and after 24 hours, absorbance was measured. One day after plating, they were treated with compounds. For treatment with compounds, […] of stock was prepared, and serially diluted to one-third in dimethyl sulfoxide (DMSO) to prepare a 12-point test compound plate, and 0.5 μl was added (final concentration DMSO 0.5%).
# In the following Tables 1 to 3, in a case of GI50 being 10 to 30 μM, it was indicated as (+), in a case of it being 1 to 10 μM, it was indicated as (++), and in case of being less than 1 μM, it was indicated as (+++).
# Sequence of PDGFRb (P09619 33-1106, species assumed): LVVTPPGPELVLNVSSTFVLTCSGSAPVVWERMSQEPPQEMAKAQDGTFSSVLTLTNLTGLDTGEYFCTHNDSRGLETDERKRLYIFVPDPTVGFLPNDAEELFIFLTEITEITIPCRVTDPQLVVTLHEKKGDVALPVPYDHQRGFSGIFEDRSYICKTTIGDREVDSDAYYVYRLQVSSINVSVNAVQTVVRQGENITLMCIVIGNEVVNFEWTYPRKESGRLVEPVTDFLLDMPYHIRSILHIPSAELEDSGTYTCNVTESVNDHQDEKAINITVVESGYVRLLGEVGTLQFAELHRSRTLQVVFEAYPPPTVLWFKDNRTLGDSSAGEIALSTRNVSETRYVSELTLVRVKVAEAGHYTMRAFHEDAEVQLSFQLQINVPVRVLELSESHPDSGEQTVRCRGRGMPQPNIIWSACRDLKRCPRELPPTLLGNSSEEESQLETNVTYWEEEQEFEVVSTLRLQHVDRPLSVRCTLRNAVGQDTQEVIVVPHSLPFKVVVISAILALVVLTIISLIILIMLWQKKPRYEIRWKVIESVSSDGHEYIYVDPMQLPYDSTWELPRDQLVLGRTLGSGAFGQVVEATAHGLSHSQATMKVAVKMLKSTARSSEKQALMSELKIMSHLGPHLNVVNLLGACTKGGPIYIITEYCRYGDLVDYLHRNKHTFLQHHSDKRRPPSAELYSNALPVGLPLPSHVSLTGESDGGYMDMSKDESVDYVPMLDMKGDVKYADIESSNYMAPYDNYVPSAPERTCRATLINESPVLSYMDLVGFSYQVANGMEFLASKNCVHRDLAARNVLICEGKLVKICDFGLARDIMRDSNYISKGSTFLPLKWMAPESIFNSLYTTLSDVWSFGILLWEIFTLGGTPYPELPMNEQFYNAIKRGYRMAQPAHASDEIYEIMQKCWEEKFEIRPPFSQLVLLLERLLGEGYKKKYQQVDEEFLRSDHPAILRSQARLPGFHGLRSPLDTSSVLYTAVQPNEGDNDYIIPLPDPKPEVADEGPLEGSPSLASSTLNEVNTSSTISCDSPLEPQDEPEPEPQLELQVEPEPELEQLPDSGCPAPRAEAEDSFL
smiles,measurement,setting,value
"CCN1CCN(Cc2ccc(NC(=O)Nc3ccc(C4=Nc5cscc5NC(=O)C4)cc3)cc2C(F)(F)F)CC1 [Example 43, 1-(4-((4-ethylpiperazine-1-yl)methyl)-3-(trifluoromethyl)phenyl)-3-(4-(2-oxo-2,3-dihydro-1H-thieno[3,4-b][1,4]diazepine-4-yl)phenyl)urea]",inhibition at 10 µM,PDGFRb,96.1%
same,inhibition at 10 µM,GSK3b,8.62%
same,inhibition at 10 µM,IGF1R,1.34%
same,inhibition at 10 µM,EGFR,24.8%
same,inhibition at 10 µM,FLT3,98.9%
same,inhibition at 10 µM,TIE2/TEK,64.9%
same,inhibition at 10 µM,SYK,57.4%
same,inhibition at 10 µM,RET,99.1%
same,inhibition at 10 µM,c-Kit,85.9%
same,inhibition at 10 µM,c-Src,55.2%
same,inhibition at 10 µM,P38a/MAPK14,89.9%
same,inhibition at 10 µM,Aurora A,20.4%
same,inhibition at 10 µM,ALK,41%
same,inhibition at 10 µM,CDK1/cyclin B,2.68%
same,inhibition at 10 µM,BRAF (V599E),43.9%
same,inhibition at 10 µM,FLT4/VEGFR3,95.8%
same,inhibition at 10 µM,FMS,100%
same,inhibition at 10 µM,c-MET,21.7%
same,inhibition at 10 µM,FGFR3,45%
same,inhibition at 10 µM,ERK1,1.22%
same,inhibition at 10 µM,FGFR2,29.9%
same,inhibition at 10 µM,FLT1/VEGFR1,79.1%
same,inhibition at 10 µM,KDR/VEGFR2,60.2%
same,inhibition at 10 µM,CDK2/cyclin E,0.28%
same,inhibition at 10 µM,LCK,79.3%
same,inhibition at 10 µM,ROS/ROS1,3.71%
same,inhibition at 10 µM,AKT1,3.23%
same,inhibition at 10 µM,RAF1,86.2%
same,inhibition at 10 µM,FGFR1,34.4%
same,inhibition at 10 µM,PDGFRa,85.9%
same,inhibition at 10 µM,BRAF,32%
same,inhibition at 10 µM,FAK/PTK2,41.2%
same,inhibition at 10 µM,MEK1,5.26%
same,inhibition at 10 µM,ITK,20.7%
same,inhibition at 10 µM,LYN,89.4%
same,GI50,[1]; read-out: A375P (GI50),< 1 µM
same,GI50,[1]; read-out: GI50 value against A375P,1.45 µM
same,effects against A375P,[1]; statement in words,significant effects
